Measured values published in US7754741B2, “Pyridine derivatives as fungicidal compounds” (Bayer Cropscience S.A., priority 2003, dated 2010).

Legend:
Conditions in all cases: 330 ppm; comparison compounds of WO 01/11965
Botrytis cinerea = assay: In vivo test on Botrytis cinerea (cucumber grey mould)
Protocol: In Vivo Test on Botrytis cinerea (Cucumber Grey Mould)
(§1) The active ingredient tested is prepared by potter homogenisation in a concentrated suspension type formulation at 100 g/l. This suspension is then diluted with water to obtain the desired active material concentration.
(§2) Cucumber plants (Marketer variety) in starter cups, sown on a 50/50 peat soil-pozzolana substrate and grown at 18-20° C., are treated at the cotyledon Z11 stage by spraying with the aqueous suspension described above. Plants, used as controls, are treated with an aqueous solution not containing the active material.
After 24 hours, the plants are contaminated by depositing drops of an aqueous suspension of Botrytis cinerea spores (150,000 spores per ml) on upper surface of the leaves. The spores are collected from a 15-day-old culture and are suspended in a nutrient solution composed of: • 20 g/L of gelatin • 50 g/L of cane sugar • 2 g/L of NH4NO3 • 1 g/L of KH2PO4
The contaminated cucumber plants are settled for 5/7 days in a climatic room at 15-11° C. (day/night) and at 80% relative humidity.
Grading is carried out 5/7 days after the contamination, in comparison with the control plants. Under these conditions, good (at least 50%) to total protection is observed at a dose of 330 ppm with the following compounds :B-7, B-8, B-13, B-14, C-3, C-12, C-13, C-14, C-15, C-16, D-4, D-5, E-4, H-1, H-2, H-4, H-7, H-9, H-22, J-1, J-2, J-3, J-19, J-31, J-32, J-33, J-34, J-35, J-37, J-39, J-43, J-44, R-1, R-10, R-23, R-24, R-26, R-31, V-1, V-8.

Alternaria brassicae = assay: In vivo test on Alternaria brassicae (leaf spot of crucifers)
Protocol: In Vivo Test on Alternaria brassicae (Leaf Spot of crucifers)
as §1
Radish plants (Pernot variety) in starter cups, sown on a 50/50 peat soil-pozzolana substrate and grown at 18-20° C., are treated at the cotyledon stage by spraying with the aqueous suspension described above.
(§3) Plants, used as controls, are treated with an aqueous solution not containing the active material.
After 24 hours, the plants are contaminated by spraying them with an aqueous suspension of Alternaria brassicae spores (40,000 spores per cm^3). The spores are collected from a 12-13-day-old culture.
The contaminated radish plants are incubated for 6-7 days at about 18° C., under a humid atmosphere.
Grading is carried out 6 to 7 days after the contamination, in comparison with the control plants.

Peronospora brassicae = assay: In vivo test on Peronospora brassicae (cabbage downy mildew)
Protocol: In Vivo Test on Peronospora brassicae (Cabbage Downy Mildew)
as §1
Cabbage plants (Eminence variety) in starter cups, sown on a 50/50 peat soil-pozzolana substrate and grown at 18-20° C., are treated at the cotyledon stage by spraying with the aqueous suspension described above.
as §3
After 24 hours, the plants are contaminated by spraying them with an aqueous suspension of Peronospora brassicae spores (50,000 spores per ml). The spores are collected from infected plant.
The contaminated cabbage plants are incubated for 5 days at 20° C., under a humid atmosphere.
Grading is carried out 5 days after the contamination, in comparison with the control plants.
Under these conditions, good (at least 50%) to total protection is observed at a dose of 330 ppm with the following compounds :B-6,B-7, J-46, J-59.

Pyrenophora teres = assay: In vivo test on Pyrenophora teres (barley net blotch)
Protocol: In Vivo Test on Pyrenophora teres (Barley Net Blotch)
as §1
as §2, with “Barley” for “Cucumber”, “(Express” for “(Marketer”, “12°” for “18-20°”, “1-leaf” for “cotyledon Z11”, “stage (10 cm tall)” for “stage”
After 24 hours, the plants are contaminated by spraying them with an aqueous suspension of Pyrenophora teres spores (12,000 spores per ml). The spores are collected from a 12-day-old culture The contaminated barley plants are incubated for 24 hours at about 20° C. and at 100% relative humidity, and then for 12 days at 80% relative humidity.

Structure (SMILES)	efficacy against Botrytis cinerea (Botrytis cinerea)	efficacy against Alternaria brassicae (Alternaria brassicae)	efficacy against Peronospora parasitica (Peronospora brassicae)	efficacy against Pyrenophora teres (Pyrenophora teres)
O=C(Cc1cccs1)NCc1ncc(C(F)(F)F)cc1Cl [compound 101, N-{[3-chloro-5-(trifluoromethyl)-2-pyridinyl]-methyl}-5-thienylacetamide, reference compound]	no efficacy	poor efficacy	no efficacy	–
CCNC(=O)C(Cc1ncc(C(F)(F)F)cc1Cl)NC(=O)c1cccc([N+](=O)[O-])c1 (stereo not drawn) [compound 307, N-{1-ethylcarbamoyl-2-[3-chloro-5-(trifluoromethyl)-2-pyridinyl]ethyl}-3-nitrobenzamide, reference compound]	no efficacy	poor efficacy	no efficacy	poor efficacy
CCNC(=O)C(Cc1ncc(C(F)(F)F)cc1Cl)NC(=O)c1ccccc1Br (stereo not drawn) [compound 310, N-{1-ethylcarbamoyl-2-[3-chloro-5-(trifluoromethyl)-2-pyridinyl]ethyl}-2-bromobenzamide, reference compound]	no efficacy	poor efficacy	no efficacy	poor efficacy
CNC(=O)C(Cc1ncc(C(F)(F)F)cc1Cl)NC(=O)c1ccc(-c2ccccc2)cc1 (stereo not drawn) [compound 316, N-{1-methylcarbamoyl-2-[3-chloro-5-(trifluoromethyl)-2-pyridinyl]ethyl}-4-phenylbenzamide, reference compound]	no efficacy	poor efficacy	no efficacy	poor efficacy
